According to patent US4954491A, “Method of treatment using 18-cyanoprogesterone derivatives” (Merrell Dow Pharmaceuticals Inc., priority 1989, dated 1990):

How the values were obtained:
[1] = tested on: enzymes in the synthesis of aldosterone; assay: inhibition of enzymes in the synthesis of aldosterone (rat adrenal capsule/glomerulosa homogenates, [3H]-DOC substrate); assay type: biochemical, Sprague-Dawley rats; conditions: Conc 10 μM, 1 μM [3H]-DOC, 10-minute assay, 25° C., pH 7.4; for f moles/min/mg: buffer control 246
Method: Young male Sprague-Dawley rats were maintained on a sodium-deficient diet for about two weeks prior to use. From these animals, adrenal capsule/glomerulose homogenates were prepared (6 mg/ml) in pH 7.4 assay buffer [MgCl2 8.5 mM, CaCl2 2.7 mM, KCl 3.13 mM, NaCl 7.591 mM, TRIS 50 mM and 0.1% triethylamine]and centrifuged 500xg for 10 minutes.
Assays were conducted in 35 ml glass tubes maintained at 25° C. in a Dubnoff shaker with 95% O2 /5% CO2. The tubes contained the following material: 100 μl of an NADPH^+ generating system, 300 μl of adrenal capsular/glomerulosa cytosol, and 50 μl of test compound or buffer (control). After initial preincubation intervals of 20 minutes, the 10-minute assay was started by the addition of 50 μl of tritium-labelled substrate, i.e., 1 μM [^3 H]-DOC. Reactions were quenched by the addition of 5 ml of ethyl acetate and non-radiolabelled steroids were also added. The samples were extracted twice with 5 ml of ethyl acetate and the solvent evaporated under nitrogen at 30°-40° C.
Residues were redissolved in methanol:water (40:60) with 0.1% triethylamine and high performance liquid chromatography was used to separate products on a Cl8 reverse phase (5 μ ODS-Hypersil) column (4.6×250 mm, Shannon) with a 1 ml/min flow rate using an MeOH:H2 O gradient (solvent A 10/90:solvent B 90/10).
Unchanged substrate and products formed were monitored by UV absorbance at 246 nm and the amount of steroid compound present was quantified by [^3 H]radioactivity. Using this procedure, the following results were observed: […]

rabbits [2] = conditions: Auel et al.; cited from earlier work
rabbits [3] = conditions: Auel et al.; cited from earlier work; remark: listed apart in the source

Compound | % Inhibition [1] | f moles/min/mg [1] | pharmacological activity in the Clauberg test (rabbits [2]) | pharmacological activity in the anti-Clauberg test (rabbits [3])
CC(=O)[C@H]1CC[C@H]2[C@@H]3CCC4=CC(=O)CC[C@]4(C)[C@H]3CC[C@]12CC#N [3,20-Dioxopregn-4-ene-18-carbonitrile] | 52.5% | 117 f moles/min/mg | inactive | inactive
CC(=O)[C@H]1CC[C@H]2[C@@H]3CCC4=CC(=O)CC[C@]4(C)[C@H]3[C@@H](O)C[C@]12CC#N [11β-Hydroxy-3,20-dioxopregn-4-ene-18-carbonitrile] | 33.3% | 164 f moles/min/mg |  | 
